Measured values taken from article PMC3724770 (ACS combinatorial science, 2012).

Target: T1, fms-like receptor tyrosine kinase-3 (FLT3) (Homo sapiens, UniProt P36888)
T1 sequence (P36888 27-993): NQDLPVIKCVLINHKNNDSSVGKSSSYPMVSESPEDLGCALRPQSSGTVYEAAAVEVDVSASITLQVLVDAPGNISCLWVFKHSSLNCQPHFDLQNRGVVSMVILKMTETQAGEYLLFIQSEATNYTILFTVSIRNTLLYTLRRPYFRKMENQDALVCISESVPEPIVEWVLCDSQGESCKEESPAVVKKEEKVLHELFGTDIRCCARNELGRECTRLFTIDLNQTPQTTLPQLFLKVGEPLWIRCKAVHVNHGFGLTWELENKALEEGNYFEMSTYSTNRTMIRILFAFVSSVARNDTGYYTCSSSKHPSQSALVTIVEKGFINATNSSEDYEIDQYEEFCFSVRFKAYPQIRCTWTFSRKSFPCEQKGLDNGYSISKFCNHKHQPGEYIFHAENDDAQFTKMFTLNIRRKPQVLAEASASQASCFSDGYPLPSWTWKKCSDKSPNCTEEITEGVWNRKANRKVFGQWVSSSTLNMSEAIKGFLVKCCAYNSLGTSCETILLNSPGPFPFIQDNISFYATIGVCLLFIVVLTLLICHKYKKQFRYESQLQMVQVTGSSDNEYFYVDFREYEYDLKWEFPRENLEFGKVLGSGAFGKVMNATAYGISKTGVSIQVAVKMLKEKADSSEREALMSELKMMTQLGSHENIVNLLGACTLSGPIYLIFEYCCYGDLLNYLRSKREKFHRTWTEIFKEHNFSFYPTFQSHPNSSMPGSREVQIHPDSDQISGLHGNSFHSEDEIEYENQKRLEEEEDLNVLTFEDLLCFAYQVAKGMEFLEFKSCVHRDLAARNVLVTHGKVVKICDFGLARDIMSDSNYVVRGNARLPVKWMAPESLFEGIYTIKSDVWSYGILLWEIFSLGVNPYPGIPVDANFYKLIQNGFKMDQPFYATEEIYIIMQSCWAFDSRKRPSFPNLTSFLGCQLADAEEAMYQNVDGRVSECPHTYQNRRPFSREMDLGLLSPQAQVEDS
Format: biochemical

IC50: 1920 nM
SMILES: CCCCNc1ncnc2c(N3CCNCC3)c[nH]c12 [compound 9, N-butyl-7-(piperazin-1-yl)-5H-pyrrolo[3,2-d]pyrimidin-4-amine]
